Data reported in patent publication US11242337B2, “Compounds useful for treating gastrointestinal tract disorders” (Ardelyx, Inc., priority 2017, dated 2022).
Where a name gives a salt, the structure may show the parent alone.

Tests used:
[1] = biological target: T1, NHE3 (Homo sapiens, UniProt P48764); experiment: Cell-based assay of NHE-3 activity (pre-incubation inhibition), human; conditions: human Preincubation; for pIC50: 0-30 μM test compound
T1 construct: expressed in transfected cells
T1 sequence (P48764 26-834): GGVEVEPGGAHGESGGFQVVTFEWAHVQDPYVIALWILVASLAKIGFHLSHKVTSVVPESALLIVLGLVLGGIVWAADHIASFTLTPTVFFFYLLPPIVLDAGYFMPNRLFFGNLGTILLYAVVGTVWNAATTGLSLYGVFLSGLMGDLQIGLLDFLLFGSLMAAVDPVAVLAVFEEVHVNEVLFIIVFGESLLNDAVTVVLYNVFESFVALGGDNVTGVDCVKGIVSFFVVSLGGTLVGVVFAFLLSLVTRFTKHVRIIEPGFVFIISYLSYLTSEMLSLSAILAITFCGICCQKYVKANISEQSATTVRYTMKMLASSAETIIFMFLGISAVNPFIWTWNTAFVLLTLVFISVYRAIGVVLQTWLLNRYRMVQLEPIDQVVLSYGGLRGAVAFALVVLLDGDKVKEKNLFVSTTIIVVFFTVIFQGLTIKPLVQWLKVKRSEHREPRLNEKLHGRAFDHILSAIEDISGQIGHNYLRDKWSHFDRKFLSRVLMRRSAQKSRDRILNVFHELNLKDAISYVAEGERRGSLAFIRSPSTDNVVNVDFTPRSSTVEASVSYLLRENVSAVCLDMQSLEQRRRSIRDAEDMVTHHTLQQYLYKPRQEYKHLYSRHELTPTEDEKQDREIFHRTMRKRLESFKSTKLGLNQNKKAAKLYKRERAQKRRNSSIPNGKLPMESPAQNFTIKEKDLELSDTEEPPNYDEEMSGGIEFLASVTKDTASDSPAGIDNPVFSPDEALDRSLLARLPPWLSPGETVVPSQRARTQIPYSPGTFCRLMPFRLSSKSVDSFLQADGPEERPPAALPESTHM
T1 sequence (Q99653 2-195 partner limits assumed): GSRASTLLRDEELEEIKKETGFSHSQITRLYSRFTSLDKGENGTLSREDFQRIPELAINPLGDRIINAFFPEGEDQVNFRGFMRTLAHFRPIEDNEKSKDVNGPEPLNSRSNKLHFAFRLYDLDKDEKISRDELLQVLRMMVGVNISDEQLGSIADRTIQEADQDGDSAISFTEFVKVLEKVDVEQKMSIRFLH
Protocol: Rat and human NHE-3-mediated Na^+-dependent H^+ antiport was measured using a modification of the pH sensitive dye method originally reported by Paradiso (Proc. Natl. Acad. Sci. USA. (1984) 81(23): 7436-7440). PS120 fibroblasts stably expressing human NHE3 and NHERF2 were obtained from Mark Donowitz (Baltimore, Md.). Opossum kidney (OK) cells were obtained from the ATCC and propagated per their instructions. The rat NHE-3 gene (GenBank M85300) was introduced into OK cells via electroporation, and cells were seeded into 96 well plates and grown overnight. Medium was aspirated from the wells then incubated for 30 min at 37° C. with NH4Cl-HEPES buffer (20 mM NH4Cl, 80 mM NaCl, 50 mM HEPES, 5 mM KCl, 2 mM CaCl2, 1 mM MgCl2, pH 7.4) containing 5 μM BCECF-AM. Cells were washed once with Ammonium free, Na^+-free HEPES (100 mM choline, 50 mM HEPES, 10 mM glucose, 5 mM KCl, 2 mM CaCl2, 1 mM MgCl2, pH 7.4) and incubated in the same buffer for 10 minutes at room temperature to lower intracellular pH with 0-30 μM test compound. […] Changes in intracellular pH were monitored using a FLIPR Tetra® (Molecular Devices, Sunnyvale, Calif.) by excitation at λex 439 to 505 nm, and measuring BCECF fluorescence at λem 538 nm. The initial rate of the fluorescence ratio change was used as a measure of NHE-mediated Na^+/H^+ activity, and reported as the change in fluorescence ratio per minute.

[2] = biological target: T1, NHE3; experiment: Cell-based assay of NHE-3 activity (persistent inhibition), human; conditions: human Persistence, 60 min incubation then washout
Protocol: The ability of compounds to inhibit human and rat NHE-3-mediated Na^+ dependent H^+ antiport after application and washout was measured using a modification of the pH sensitive dye method described above. PS120 fibroblasts stably expressing human NHE3 and NHERF2 were obtained from Mark Donowitz (Baltimore, Md.). Opossum kidney (OK) cells were obtained from the ATCC and propagated per their instructions. The rat NHE-3 gene was introduced into OK cells via electroporation, and cells were seeded into 96 well plates and grown overnight. Medium was aspirated from the wells, cells were washed once with NaCl-HEPES buffer (100 mM NaCl, 50 mM HEPES, 10 mM glucose, 5 mM KCl, 2 mM CaCl2, 1 mM MgCl2, pH 7.4), then overlayed with NaCl-HEPES buffer containing 0-30 μM test compound. After a 60 min incubation at room temperature, the test drug containing buffer was aspirated from the cells. Following aspiration, cells were washed once with NaCl-HEPES buffer without drug, then incubated for 30 min at 37° C. with NH4Cl-HEPES buffer (20 mM NH4Cl, 80 mM NaCl, 50 mM HEPES, 5 mM KCl, 2 mM CaCl2, 1 mM MgCl2, pH 7.4) containing 5 μM BCECF-AM. Cells were washed once with Ammonium free, Na^+-free HEPES (100 mM choline, 50 mM HEPES, 10 mM glucose, 5 mM KCl, 2 mM CaCl2, 1 mM MgCl2, pH 7.4) and incubated in the same buffer for 10 minutes at room temperature to lower intracellular pH. NHE-3-mediated recovery of neutral intracellular pH was initiated (10 min after compound washout) by addition of Na-HEPES buffer. […] Changes in intracellular pH were monitored using a FLIPR Tetra® (Molecular Devices, Sunnyvale, Calif.) by excitation at λex 439 to 505 nm, and measuring BCECF fluorescence at λem 538 nm. The initial rate of the fluorescence ratio change was used as a measure of NHE-mediated Na^+/H^+ activity, and reported as the change in fluorescence ratio per minute.

% inhibition [1] | pIC50 [1] | % inhibition [2] | pIC50 [2] | IC50 [2] [nM] | Compound
C (>70%) | C (NHE3 pIC50 > 7) | C (>70%) | C (NHE3 pIC50 > 7) | – | CC(C)(COCCOCCNC(=O)NCCCCNC(=O)NCCOCCOCC(C)(C)NS(=O)(=O)c1ccc(O[C@H]2c3cc(Cl)cc(Cl)c3C[C@@H]2N2CCC[C@@H](N)C2)cc1)NS(=O)(=O)c1ccc(O[C@H]2c3cc(Cl)cc(Cl)c3C[C@@H]2N2CCC[C@@H](N)C2)cc1 [Example 100, 1-[2-(2-[2-[(4-[[(1S,2S)-2-[(3R)-3-Aminopiperidin-1-yl]-4,6-dichloro-2,3-dihydro-1H-inden-1 yl]oxy]benzene)sulfonamido]-2-methylpropoxy]ethoxy)ethyl]-3-[4-([[2-(2-[2-[(4-[[(1S,2S)-2-[(3R)-3-aminopiperidin-1-yl]-4,6-dichloro-2,3-dihydro-1H-inden-1-yl]oxy]benzene)sulfonamido]-2-methylpropoxy]ethoxy)ethyl]carbamoyl]amino)butyl]urea; hydrochloride]
B (40-70%) | C (NHE3 pIC50 > 7) | B (40-70%) | C (NHE3 pIC50 > 7) | – | Cc1cc(S(=O)(=O)N2CC[C@@H](COc3ccnc(CNC(=O)NCCCCNC(=O)NCc4cc(OC[C@@H]5CCN(S(=O)(=O)c6ccc(O[C@H]7c8cc(Cl)cc(C#N)c8C[C@@H]7N(C)C)c(C)c6)C5)ccn4)c3)C2)ccc1O[C@H]1c2cc(Cl)cc(C#N)c2C[C@@H]1N(C)C [Example 51, 3-[(4-[[(3R)-1-[(4-[[(1S,2S)-6-Chloro-4-cyano-2-(dimethylamino)-2,3-dihydro-1H-inden-1-yl]oxy]-3-methylbenzene)sulfonyl]pyrrolidin-3-yl]methoxy]pyridin-2-yl)methyl]-1-[4-([[(4-[[(3R)-1-[(4-[[(1S,2S)-6-chloro-4-cyano-2-(dimethylamino)-2,3-dihydro-1H-inden-1-yl]oxy]-3-methylbenzene)sulfonyl]pyrrolidin-3-yl]methoxy]pyridin-2-yl)methyl]carbamoyl]amino)butyl]urea]
A (NHE3 < 40%) | C (NHE3 pIC50 > 7) | B (40-70%) | – | 100 to 1000 | CN(C)[C@H]1Cc2c(C#N)cc(Cl)cc2[C@@H]1Oc1ccc(S(=O)(=O)NCCOCCOCCNC(=O)NCCCCNC(=O)NCCOCCOCCNS(=O)(=O)c2ccc(O[C@H]3c4cc(Cl)cc(C#N)c4C[C@@H]3N(C)C)cc2)cc1 [Example 12, 3-[2-(2-[2-[(4-[[(1S,2S)-6-Chloro-4-cyano-2-(dimethylamino)-2,3-dihydro-1H-inden-1-yl]oxy]benzene)sulfonamido]ethoxy]ethoxy)ethyl]-1-[4-([[2-(2-[2-[(4-[[(1S,2S)-6-chloro-4-cyano-2-(dimethylamino)-2,3-dihydro-1H-inden-1-yl]oxy]benzene)sulfonamido]ethoxy]ethoxy)ethyl]carbamoyl]amino)butyl]urea; bis(trifluoroacetic acid)]
A (NHE3 < 40%) | A (NHE3 pIC50 < 6) | A (NHE3 < 40%) | A (NHE3 pIC50 < 6) | – | N#Cc1cc(Cl)cc2c1C[C@H](N1CCC[C@@H](N)C1)[C@H]2Oc1ccc(S(=O)(=O)NCCOCCOCCNC(=O)NCCCCNC(=O)NCCOCCOCCNS(=O)(=O)c2ccc(O[C@H]3c4cc(Cl)cc(C#N)c4C[C@@H]3N3CCC[C@@H](N)C3)c(F)c2)cc1F [Example 38]
C (>70%) | C (NHE3 pIC50 > 7) | C (>70%) | C (NHE3 pIC50 > 7) | – | C[C@H]1CN([C@H]2Cc3c(C#N)cc(Cl)cc3[C@@H]2Oc2ccc(S(=O)(=O)N[C@@H]3CCN(CCOCCNC(=O)NCCCCNC(=O)NCCOCCN4CC[C@@H](NS(=O)(=O)c5ccc(O[C@H]6c7cc(Cl)cc(C#N)c7C[C@@H]6N6CCN[C@@H](C)C6)cc5)C4)C3)cc2)CCN1 [Example 135]
C (>70%) | C (NHE3 pIC50 > 7) | C (>70%) | C (NHE3 pIC50 > 7) | – | CN(C)[C@H]1Cc2c(Cl)cc(Cl)cc2[C@@H]1Oc1ccc(S(=O)(=O)N[C@@H]2CCN(CCOCCNC(=O)NCCCCNC(=O)NCCOCCN3CC[C@@H](NS(=O)(=O)c4ccc(O[C@H]5c6cc(Cl)cc(Cl)c6C[C@@H]5N(C)C)c(F)c4)C3)C2)cc1F [Example 112, 4-([(1S,2S)-4,6-Dichloro-2-(dimethylamino)-2,3-dihydro-1H-inden-1-yl]oxy)-N—[(R)-1-(20-[(R)-3-([4-([(1S,2S)-4,6-dichloro-2-(dimethylamino)-2,3-dihydro-1H-inden-1-yl]oxy)-3-fluorophenyl]sulfonamido)pyrrolidin-1 yl]-7,14-dioxo-3,18-dioxa-6,8,13,15-tetraazaicosyl)pyrrolidin-3-yl)-3-fluorobenzenesulfonamide; tetra(trifluoroacetate)]
B (40-70%) | – | C (>70%) | – | – | Cc1cc(Cl)cc2c1C[C@H](N1CCC[C@@H](N)C1)[C@H]2Oc1ccc(S(=O)(=O)NCCOCCOCCNC(=O)NCCCCNC(=O)NCCOCCOCCNS(=O)(=O)c2ccc(O[C@H]3c4cc(Cl)cc(C)c4C[C@@H]3N3CCC[C@@H](N)C3)c(F)c2)cc1F [Example 10, 3-[2-(2-[2-[(4-[[(1S,2S)-2-[(3R)-3-Aminopiperidin-1-yl]-6-chloro-4-methyl-2,3-dihydro-1H-inden-1-yl]oxy]-3-fluorobenzene)sulfonamido]ethoxy]ethoxy)ethyl]-1-[4-[[(2-(2-[2-[(4-[[(1S,2S)-2-[(3R)-3-aminopiperidin-1-yl]-6-chloro-4-methyl-2,3-dihydro-1H-inden-1-yl]oxy]-3-fluorobenzene)sulfonamido]ethoxy]ethoxy)ethyl]carbamoyl]amino)butyl]urea; bis(trifluoroacetic acid)]
